According to patent publication US20060275238A1, “Topical cosmetic formulations for regulating and improving the moisture content of the skin” (Goldschmidt GmbH, priority 2005, published 2006):

How the values were obtained:
[1] = In vitro sorption-desorption properties of moisturizers (weight increase vs relative atmospheric humidity); format: physicochemical; settings: 24 h each; for ability to absorb water as the atmospheric humidity increases: 20% to 80% r.h. in 10% stages; for ability to store/hold the absorbed water as the atmospheric humidity decreases (hysteresis behavior): 80% r.h. reduced in 10% stages
Protocol: In order to determine the in vitro sorption-desorption properties of moisturizers, these were firstly dried overnight at 80° C. and 0% relative humidity (r.h.) and then cooled to room temperature in a desiccator. 4-5 g of the moisturizer substance were then placed into a Petri dish and stored for 24 h at 20% rh. The weight increase was recorded and the atmospheric humidity was then increased by 10%. After 24 h, the weight of the moisturizer was monitored again. This was repeated in stages to an atmospheric humidity of 80%. The atmospheric humidity was then reduced again every 24 h in 10% stages and the weight decrease was recorded.

skin = test: Corneometry, skin moisture before and after single application of test formulation; format: in vivo, subjects; settings: single application in O/W cream, contact time two hours; concentration as in 10% active ingredient combination 1
Protocol: Corneometry is a noninvasive method which permits conclusions relating to the skin moisture on the basis of changes in the physical parameters within the stratum corneum. In practice, 12 to 15 subjects are recruited whose skin moisture is measured before and after single application of the test formulations using a HM99 corneometer (Courage & Khazaka, Cologne, Germany) according to the manufacturer's instructions.
After climatization of the subjects over 15 minutes under defined conditions of 22° C. and 55% relative humidity, the skin hydration is determined corneometrically and afterwards 50 mg of the test formulation are applied to a skin area each with a diameter of 2.5 cm, and after […] any residues of the formulation are removed.
After a contact time of two hours, the skin hydration is measured again following climatization of 15 minutes (22° C., 55% rel. humidity). An increase of the relative corneometer units CU correlates directly with improved skin hydration.
The concentrations of the individual substances were chosen so that they correspond to the concentration in 10% active ingredient combination 1.

| ability to absorb water as the atmospheric humidity increases [1] | ability to store/hold the absorbed water as the atmospheric humidity decreases (hysteresis behavior) [1] | Structure (SMILES) | ΔCU, increase in the relative corneometer units compared with the blank formulation (skin) [CU] |
| --- | --- | --- | --- |
| very good ability to absorb water | able to hold onto the absorbed water | NC(N)=O [urea, Urea] | 3.6 |
| very good ability to absorb water | able to hold onto the absorbed water | C[N+](C)(C)CC(=O)[O-] [trimethylglycine, Trimethylglycine] | 3.2 |
| – | – | CC(O)C(=O)[O-].[K+] (stereo not drawn) [potassium lactate, Potassium lactate] | 1.6 |

| Structure (SMILES) | ability to absorb water as the atmospheric humidity increases [1] | ability to store/hold the absorbed water as the atmospheric humidity decreases (hysteresis behavior) [1] | ΔCU, increase in the relative corneometer units compared with the blank formulation (skin) [CU] |
| --- | --- | --- | --- |
| OCC(O)CO [glycerol, 1,2,3-propanetriol, reference compound] | absorb the largest possible amounts of water | not able to do | – |
